Experimental data from EP3354264A1, “PROPHYLAXIS AND TREATMENT OF NEISSERIA GONORRHOEAE EYE INFECTION” (Kingston University Higher Education Corporation, priority 2017, dated 2018).
Values after ≈ are worked out from the molar mass of the structure shown. Like-named read-outs stand apart in the source and are kept apart here.

Assays:
Streptococcus pneumoniae = settings: at the concentration used for the antigonococcal ocular formulation; cited from earlier work
Staphylococcus aureus = settings: at the concentration used for the antigonococcal ocular formulation; cited from earlier work
[1] = tested on: panel of nine N. gonorrhoeae isolates (strain NCCP11945 and eight isolates from Public Health England); assay: Minimum bactericidal concentration by log reduction, panel of isolates; format: cell-based; settings: Neisseria gonorrhoeae, 2 min, read-out: Minimum bactericidal concentration
Experimental: (§1) The well characterised N. gonorrhoeae strain NCCP11945 (Chung GT et al. (2008) Complete genome sequence of Neisseria gonorrhoeae NCCP11945. Journal of Bacteriology 190: 6035-6036) was used in the screening stage of this experiment. Eight isolates that were obtained from Public Health England from various European locations were used in the log reduction assays. All isolates were first cultured for 24 hours prior to testing by plating on GC solid medium (Oxoid Limited, Hampshire, UK) with Kellogg supplements and incubating at 37 °C, 5% CO2 (Kellogg DS, Jr., et al., (1963), J Bacteriol 85: 1274-1279).
(§2) Log reductions were done using the same method as in Bergsson et al., (1999), Antimicrob Agents Chemother 43: 2790-2792. Briefly, cells were suspended in GC broth (18 g/L GC Base (Oxiod, Limited) with added defined supplements) to an optical density of 0.3 at 520 nm which is approximately equivalent to 107 - 108 cells per millilitre (Macfarlane DE et al. (1980) Improved media for the culture of Neisseria gonorrhoeae. J Med Microbiol 13: 597-607). Five hundred microliters of the suspension was then added to 5 µl of the 100 mM stocks to give a final concentration of 1 mM. A negative control was also done to calculate the reduction in bacterial titre by adding 500 µl to 5 µl ethanol. The tubes were then mixed at room temperature for two minutes and immediately diluted in a 10 fold dilution series down to 10-4. The dilutions were plated by spreading 10 µl on a quarter of a plate and 100 µl of the neat solution was also plated. Plates were incubated at 37 °C for 48 hours. All samples were plated in duplicate. A reduction in viable cell count by more than 4 log10 was deemed to be bactericidal and was selected for further investigation. Bactericidal compounds were then tested at concentrations of 0.75, 0.5, and 0.25 mM (0.125 mM was also used in some potent compounds) to find the minimum bactericidal concentration. Additional testing at lower concentrations was also done on the eight clinical isolates of European origin.
As shown by the results in Table 3 which presents data on the log reductions of bacterial cell counts, against a panel of nine N. gonorrhoeae isolates (strain NCCP11945 and eight isolates from Public Health England), myristoleic acid (C14:1cΔ9), palmitoleic acid (C16:1cΔ9), linolenic acid (C18:3cΔ9,12,15), and monocaprin (C10) have a minimal bactericidal concentration, defined as the lowest concentration tested to give an average 4 log10 reduction in bacterial count after a two minute exposure, of 0.5 mM. Against a panel of nine N. gonorrhoeae isolates, lauric acid (C12:0), tridecanoic acid (C13:0), and sodium dodecanoate have a minimal bactericidal concentration of 0.75 mM.

Neisseria meningitidis = settings: at the concentration used for the antigonococcal ocular formulation; cited from earlier work
[2] = tested on: Neisseria gonorrhoeae strain NCCP11945; assay: Log reduction in artificial tear fluid; format: cell-based; settings: two minute exposure
Experimental: Artificial tear fluid was made as in Mirejovsky et al., Optometry and Vision Science, (1991), 68: 858-864. […] Neisseria gonorrhoeae strain NCCP11945 was used in these experiments. As the previous log reductions, […] were suspended in GC broth. The cell suspension was centrifuged to remove the culture medium and the bacteria resuspended in the tear fluid. This was then added to the concentrated organic acid candidates. The cells were then counted again after two minute exposure to estimate any reduction due to the exposure to the fatty acid.
In a first experiment, the artificial tear fluid formulation includes calcium chloride to mimic the calcium in natural tears. As shown by the results in Figure 8, the anti-gonococcal properties of myristoleic acid (C14:1cΔ9), palmitoleic acid (C16:1cΔ9), linolenic acid (C18:3cΔ9,12,15), and monocaprin(C10) are retained in the artificial tear fluid formulation containing calcium chloride.
In a second experiment, calcium chloride was omitted from the artificial tear fluid formulation. The results in Figure 9 indicate that the anti-gonococcal properties of lauric acid (C12:0), tridecanoic acid (C13:0), and sodium dodecanoate were retained in the artificial tear fluid formulation without.

[3] = tested on: Neisseria gonorrhoeae strain NCCP11945; assay: Measurement of bactericidal action (log reduction); format: cell-based; settings: for log reduction at 1000 µM: Neisseria gonorrhoeae
Experimental: as §1
(§3) A full list of all the organic acids tested in this study is in Table 1. The tested compounds include saturated and unsaturated fatty acids, monoglycerides, dicarboxylic acids, and fatty acid sodium salts. All compounds investigated were resuspended at a concentration of 100 mM in ethanol unless stated. All chemicals were obtained from Sigma-Aldrich (Poole, Dorset, UK).
as §2

[4] = tested on: N. gonorrhoeae strain NCCP11945; assay: Cell culture infection model (primary cornea epithelial cells); format: cell-based; settings: 1 mM, added 90 minutes after infection; Figure 10
Experimental: Primary cornea epithelial cells were obtained from Life Technologies (Paisley, Glasgow, UK) and grown in Keratinocyte serum free medium (Life Technologies), at 37 °C with 5 % CO2 until 80 % confluent. The cells were then trypsin treated, washed, added to 24 welled plates and incubated for a further 24 hours. The medium was replaced and a fresh P+, Opa+ cells N. gonorrhoeae strain NCCP11945 suspension (approximately 10^7 CFU/ml) was added to the cells to get a multiplicity of infection of 10. All samples were done in duplicate. Monocaprin (1 mM, 0.5 mM, 0.25 mM, and 0.125 mM) was either added directly after the bacteria or after 90 minutes. […] The total time of the infection was three hours. The cells were washed five times with 1 ml PBS for each well. The wells were treated with warmed 1 % saponin in PBS and incubated for 10 minutes at 37 °C. After this, 900 µl GC broth was added and log reductions calculated as above. The CFUs of the drug exposed wells were compared to the CFU counts of the Infection controls to estimate the log reduction caused by the action of the monocaprin. Comparisons of the log reductions at different drug administration times at given concentrations was analysed in an unpaired t test using GraphPad Prism (version 6.01).

RBCs = assay: in vitro; format: cell-based, bovine
Experimental: (§4) Whole bovine blood was obtained from a local slaughter house (ABP, Guildford, Surrey, UK), adding 90 ml blood to 10 ml of 110 mM tri-sodium citrate anticoagulant. RBCs were isolated the same day. The RBCs were washed by three repeats of centrifugation (1,500 x g for 10 minutes) and resuspension in PBSG. Testing was done following European Union Reference Laboratory for alternatives to animal testing (EURL-ECVAM) guidelines (Lewis RW (2010) DB-ALM Protocol No. 99: Red blood cell (RBC) Test System. EURL ECVAM). The organic acids were made up in DMSO and diluted to a DMSO concentration maximum of 10 % (v/v). Samples were shaken at room temperature for 1 hour and then centrifuged at 10,000 rpm for 2 minutes. An aliquot of 750 µl of the supernatant was taken and absorbance at […] tested.

in vitro = format: cell-based, bovine; settings: red blood cells, bovine RBCs, shaken 1 hour at room temperature
Experimental: as §4

[5] = tested on: Neisseria gonorrhoeae strain NCCP11945; assay: Growth inhibition screen of organic acids; format: cell-based; settings: strain NCCP11945, in vitro, 1 mM
Experimental: as §1, §3
Other organic acids were also active at this concentration, as noted in Table 1.

Pseudomonas aeruginosa = settings: at the concentration used for the antigonococcal ocular formulation; cited from earlier work
Chorioallantoic Membrane = settings: organic acids 1 mg/ml, sodium hydroxide 0.1M; for Total Score: number
Experimental: The HET-CAM was performed according to Alany et al., (2006), J Control Release 111: 145-152. Fertilised white leghorn eggs were purchased from Henry Stewart & Co. Ltd (Fakenham, Norfolk, UK) and delivered to Kingston University. All eggs were checked for damage and incubated at 37°C with 60-70 % relative humidity. At day 4 the eggs were removed from their shells and placed in incubation chambers. At day 9, the CAMs were tested. This was done by applying 200 µl of the testing material and recording results at 30, 120, and 300 seconds. At each of these time-points the effect of the substance on the CAM was evaluated by assessing them against the scoring system (Vanerp YHM, et al., (1990), Toxicology in Vitro 4: 267-269).

Bovine eyes = settings: test compounds 1 mM in saline, controls as labelled, exposure 30 seconds
Experimental: Bovine eyes were collected from a local slaughter house (ABP, Guildford, Surrey, UK) and were transported in cold saline for testing at the laboratory. Each eye was first examined for signs of damage before use. The test was conducted according to Abdelkader et al., (2012), Int J Pharm 432: 1-10. The exposure time of the test substances was 30 seconds. The selected bactericidal compounds were tested at a concentration of 1 mM in saline. Overall, the concentration of ethanol carry-over from the stock of the organic acids was therefore 1 %. […] The test area of the cornea was then washed with 10 ml saline.
Corneal damage to the test area was assessed by fluorescein staining and examined under a cobalt blue filter. […] Each of the seven candidates were tested in triplicate, each test was performed on a separate day from a different batch of eye balls. Corneal histology was done as Abdelkader et al., (2012), Int J Pharm 432: 1-10 by evaluating the damage to the epithelial layer and stroma of the cornea after Haematoxylin and Eosin staining.

[6] = lowest concentration tested giving an average 4 log10 reduction after two minute exposure, nine isolates
[7] = artificial tear fluid containing calcium chloride, Figure 8
[8] = 2 min, strain NCCP11945, 1 mM, 2 minutes, read-out: Log reduction of Neisseria gonorrhoeae
[9] = strain NCCP11945, 1 mM, 2 minutes
[10] = at their minimum bactericidal concentration
[11] = artificial tear fluid without calcium chloride, Figure 9

Row | SMILES | MBC [1, 6] | anti-gonococcal properties in artificial tear fluid [2, 7] | log reduction at 1000 µM [3, 8] | Log reduction of Neisseria gonorrhoeae [3, 9] | RBC lysis assay prediction of irritation (RBCs; [10]) | HC50 at 1 h (in vitro; read-out: H50) | HC50 at 1 h (in vitro; read-out: H50 (mg/L)) | Inhibits growth of Neisseria gonorrhoeae [5] | Total Score (Chorioallantoic Membrane) | anti-gonococcal properties in artificial tear fluid [2, 11] | other results
1 | CCCCCCCCCC(=O)OCC(O)CO (stereo not drawn) [Monocaprin C10, Monocaprin] | 500 µM (≈ 123 µg/mL) | retained | > 6 | able to cause a log reduction | not irritating | 1.6 to 2.4 mM | 400 to 600 mg/L | Yes |  |  | bactericidal to Streptococcus pneumoniae (Streptococcus pneumoniae): bactericidal; bactericidal to Staphylococcus aureus (Staphylococcus aureus): bactericidal; bactericidal to Neisseria meningitidis (Neisseria meningitidis): bactericidal; kill of Neisseria gonorrhoeae that has infected human epithelial cells [4]: able to kill; Inhibits growth of Neisseria gonorrhoeae ([5]; listed as monocaprin): able to inhibit growth; bactericidal to Pseudomonas aeruginosa (Pseudomonas aeruginosa): bactericidal
2 | CC(C)=O [Acetone, reference compound] |  |  |  |  |  |  |  |  | 14 |  | Total Score (irritation grade in words) (Chorioallantoic Membrane): Severe; BCOP classification (Bovine eyes): Strong irritant
3 | CCCCCCCCCCCCC(=O)O [Tridecanoic acid 13:0, Tridecanoic acid] | 750 µM (≈ 161 µg/mL) |  | > 6 | able to cause a log reduction |  | > 4.67 mM | > 1000 mg/L | Yes |  | retained | RBC lysis assay prediction of irritation (RBCs): not irritating; Inhibits growth of Neisseria gonorrhoeae ([5]; listed as tridecanoic acid): able to inhibit growth
4 | CCCCCCCCCCCC(=O)O [Lauric acid 12:0, dodecanoic acid] |  |  |  | able to cause a log reduction | not irritating | 1 to 2 mM | 200 to 400 mg/L | Yes | 0 | retained | Total Score (irritation grade in words) (Chorioallantoic Membrane; listed as Lauric acid): None; MBC [1]: 750 µM (≈ 150 µg/mL); BCOP classification (Bovine eyes; listed as Lauric acid): Non-irritant; BCOP classification (Bovine eyes; listed as lauric acid): will not cause irritation; log reduction at 1000 µM ([3]; NCCP11945, 2 min, read-out: Log reduction of Neisseria gonorrhoeae, strain NCCP11945, 1 mM, 2 minutes): > 6; Inhibits growth of Neisseria gonorrhoeae ([5]; listed as lauric acid): able to inhibit growth
5 | CCCC/C=C\CCCCCCCC(=O)O [Myristoleic acid 14:1 cΔ9, (Z)-tetradec-9-enoic acid] | 500 µM (≈ 113 µg/mL) | retained | > 6 | able to cause a log reduction | not irritating | 2.6 to 3.5 mM | 600 to 800 mg/L | Yes |  |  | Inhibits growth of Neisseria gonorrhoeae ([5]; listed as myristoleic acid): able to inhibit growth
